pIC50: −log10 of the molar value.
Key:
[1] = molecular target: T1, Sialidase-3 (Homo sapiens, UniProt Q9UQ49)
T1 sequence (Q9UQ49 whole entry): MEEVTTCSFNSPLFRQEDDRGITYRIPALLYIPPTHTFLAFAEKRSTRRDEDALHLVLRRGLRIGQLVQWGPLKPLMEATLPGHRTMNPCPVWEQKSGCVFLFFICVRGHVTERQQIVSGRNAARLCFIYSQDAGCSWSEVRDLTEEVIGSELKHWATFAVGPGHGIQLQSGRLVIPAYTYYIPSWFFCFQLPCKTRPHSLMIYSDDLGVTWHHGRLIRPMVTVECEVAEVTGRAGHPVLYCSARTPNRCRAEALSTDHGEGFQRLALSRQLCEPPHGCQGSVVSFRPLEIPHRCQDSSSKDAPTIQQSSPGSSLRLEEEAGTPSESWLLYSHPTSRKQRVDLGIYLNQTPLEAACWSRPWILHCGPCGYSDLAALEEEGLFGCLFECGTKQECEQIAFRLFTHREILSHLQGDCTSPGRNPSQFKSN
Description: Inhibition of human neuraminidase 3 assessed as inhibition of 4-methylumbelliferyl-alpha-D-glucopyranoside hydrolysis by fluorescence assay

[2] = molecular target: T1, Sialidase-3; assay: Inhibition of human neuraminidase 3 assessed as inhibition of 4-methylumbelliferyl-alpha-D-N-acetylneuraminic acid hydrolysis
[3] = molecular target: T1, Sialidase-3; assay: Inhibition of human neuraminidase 3 assessed as inhibition of GM3 hydrolysis
[4] = molecular target: T1, Sialidase-3; assay: Inhibition of human neuraminidase 3

| pIC50 [1] | SMILES | other results |
| --- | --- | --- |
| < 3.30 | CCOc1cn(CC(=O)N[C@H]2[C@H]([C@H](O)[C@H](O)CO)OC(C(=O)O)=C[C@@H]2O)nn1 | – |
| < 3.30 | O=C(Cn1cc(CO)nn1)N[C@H]1[C@H]([C@H](O)[C@H](O)CO)OC(C(=O)O)=C[C@@H]1O | – |
| 4.32 | CC(=O)N[C@H]1[C@H]([C@H](O)[C@H](O)CO)OC(C(=O)O)=C[C@@H]1O [NEU5AC2EN] | pIC50 [2]: 4.37 |
| 3.52 | CC(=O)N[C@H]1[C@H]([C@H](O)[C@H](O)Cn2cc(C(C)(C)O)nn2)OC(C(=O)O)=C[C@@H]1O | – |
| 4.68 | [N-]=[N+]=NCC(=O)N[C@H]1[C@H]([C@H](O)[C@H](O)CO)OC(C(=O)O)=C[C@@H]1O | – |
| < 3.30 | O=C(Cn1cc(COc2ccccc2)nn1)N[C@H]1[C@H]([C@H](O)[C@H](O)CO)OC(C(=O)O)=C[C@@H]1O | – |
| – | CC(=O)NC[C@@H](O)[C@@H](O)[C@@H]1OC(C(=O)O)=C[C@H](O)[C@H]1NC(C)=O | pIC50 [2]: < 3.00 |
| 4.15 | CC(=O)N[C@H]1[C@H]([C@H](O)[C@H](O)CN=[N+]=[N-])OC(C(=O)O)=C[C@@H]1O | – |
| 3.52 | CCOc1cn(C[C@@H](O)[C@@H](O)[C@@H]2OC(C(=O)O)=C[C@H](O)[C@H]2NC(C)=O)nn1 | – |
| < 3.30 | O=C(Cn1cc(CCO)nn1)N[C@H]1[C@H]([C@H](O)[C@H](O)CO)OC(C(=O)O)=C[C@@H]1O | – |
| – | CC(=O)N[C@H]1[C@H]([C@H](O)[C@H](O)CNC(=O)c2ccccc2)OC(C(=O)O)=C[C@@H]1O | pIC50 [2]: 3.49 |
| < 3.30 | CCOC(OCC)c1cn(CC(=O)N[C@H]2[C@H]([C@H](O)[C@H](O)CO)OC(C(=O)O)=C[C@@H]2O)nn1 | – |
| < 3.30 | CCCCCCc1cn(CC(=O)N[C@H]2[C@H]([C@H](O)[C@H](O)CO)OC(C(=O)O)=C[C@@H]2O)nn1 | – |
| 4.70 | CC(=O)N[C@H]1[C@H]([C@H](O)[C@H](O)Cn2cc(-c3ccccc3)nn2)OC(C(=O)O)=C[C@@H]1O | – |
| < 3.30 | O=C(Cn1cc(-c2ccccc2)nn1)N[C@H]1[C@H]([C@H](O)[C@H](O)CO)OC(C(=O)O)=C[C@@H]1O | – |
| 3.89 | CCOC(OCC)c1cn(C[C@@H](O)[C@@H](O)[C@@H]2OC(C(=O)O)=C[C@H](O)[C@H]2NC(C)=O)nn1 | – |
| 4.64 | CCCCCCc1cn(C[C@@H](O)[C@@H](O)[C@@H]2OC(C(=O)O)=C[C@H](O)[C@H]2NC(C)=O)nn1 | – |
| – | CCOC(=O)C1=C[C@@H](OC(CC)CC)[C@H](NC(C)=O)[C@@H](N)C1 [OSELTAMIVIR] | pIC50 [3]: < 2.00 |
| < 3.30 | O=C(Cn1cc(CCCO)nn1)N[C@H]1[C@H]([C@H](O)[C@H](O)CO)OC(C(=O)O)=C[C@@H]1O | – |
| 3.30 | CC(=O)N[C@H]1[C@H]([C@H](O)[C@H](O)Cn2cc(CCCO)nn2)OC(C(=O)O)=C[C@@H]1O | – |
| < 3.30 | CC(C)(O)c1cn(CC(=O)N[C@H]2[C@H]([C@H](O)[C@H](O)CO)OC(C(=O)O)=C[C@@H]2O)nn1 | – |
| – | CC(=O)N[C@H]1[C@H]([C@H](O)[C@H](O)CO)O[C@@](O)(C(=O)O)C[C@@H]1O | IC50 [4]: Not Active |
| 4.35 | CC(=O)N[C@H]1[C@H]([C@H](O)[C@H](O)Cn2cc(COc3ccccc3)nn2)OC(C(=O)O)=C[C@@H]1O | – |
| 3.52 | CC(=O)N[C@H]1[C@H]([C@H](O)[C@H](O)Cn2cc(CO)nn2)OC(C(=O)O)=C[C@@H]1O | – |
| 3.40 | CC(=O)N[C@H]1[C@H]([C@H](O)[C@H](O)Cn2cc(CCO)nn2)OC(C(=O)O)=C[C@@H]1O | – |
